Test results published in patent publication US20090203734A1, “F1F0-ATPASE INHIBITORS AND RELATED METHODS” (The Regents of the University of Michigan, priority 2008, published 2009).

Experiments:
[1] = molecular target: T1, bovine F1Fo-ATPase (Bos taurus, UniProt P13621); assay: ATP hydrolysis by F1Fo-ATPase in bovine submitochondrial particles (SMPs); assay type: biochemical
T1 construct: bovine F1Fo-ATPase present in submitochondrial particles (SMPs); from tissue

[2] = molecular target: T1, bovine F1Fo-ATPase; assay: ATP synthesis by F1Fo-ATPase in bovine submitochondrial particles (SMPs); assay type: biochemical
[3] = system: Ramos B cells; assay: Early superoxide (O2-, ROS) response in Ramos B cells; assay type: cell-based; conditions: Homo sapiens, O2- response 1 h following incubation with drug
Method: (§1) Since an early mitochondrial superoxide (O2^−) mediates apoptosis induced by Bz-423, the O2^− response of cells 1 h following incubation with drug was examined, as well as cell death at 24 h, as previously described (see, e.g., Blatt, N. B., et al., 2002 J Clin Invest 110, 1123-1132; incorporated herein by reference in its entirety).

[4] = system: Jurkat T cells; assay: Early superoxide (O2-, ROS) response in Jurkat T cells; assay type: cell-based; conditions: Homo sapiens, O2- response 1 h following incubation with drug
Method: as §1

[5] = system: Ramos B cells; assay: Cell death in Ramos B cells; assay type: cell-based; conditions: Homo sapiens, cell death at 24 h
Method: as §1

[6] = system: Jurkat T cells; assay: Cell death in Jurkat T cells; assay type: cell-based; conditions: Homo sapiens, cell death at 24 h
Method: as §1

[7] = bovine SMPs, drug 0-300 μM, read-out: ATPase activity EC50, Hydrolysis
[8] = read-out: ATPase activity EC50, Synthesis

| SMILES | EC50 [1, 7] | EC50 [2, 8] | EC50 [1] | EC50 ([2]; ATPase activity EC50, Synthesis) | EC50 [3] | EC50 [4] | EC50 [5] | EC50 [6] |
| --- | --- | --- | --- | --- | --- | --- | --- | --- |
| CN1C(=O)C(Cc2ccc3ccccc3c2)N=C(c2ccc(O)cc2)c2cc(Cl)ccc21 (stereo not drawn) [Bz-423] | 8.9 µM | 5.5 µM | – | – | – | – | – | – |
| CN1C(=O)CN=C(c2ccc(Cl)cc2)c2cc(Cl)ccc21 [Compound 4-Cl-Dz, 4-chlorodiazepam] | > 300 µM | 210 µM | – | – | – | – | – | – |
| O=C1CN=C(c2ccccc2Cl)c2cc([N+](=O)[O-])ccc2N1 [Cz, clonazepam] | 240 µM | 120 µM | – | – | – | – | – | – |
| CN1C(=O)CN=C(c2ccccc2)c2cc(Cl)ccc21 [Dz, diazepam] | – | – | > 300 µM | 210 µM | 170 µM | 200 µM | 250 µM | 170 µM |
